Assays:
[1] = system: chloroquine-resistant Dd2 Plasmodium falciparum parasites; experiment: SYBR Green I antiplasmodial assay against chloroquine-resistant Dd2 parasites; type: cell-based; conditions: DD2, read-out: EC50 against Dd2
[2] = system: 3D7 (wild-type) parasites; experiment: Antiplasmodial dose-response against 3D7; type: cell-based; conditions: Plasmodium falciparum, 3D7, read-out: EC50 against 3D7

COC(=O)[C@H]1[C@H]2C[C@@H]3c4[nH]c5cc(OC)ccc5c4CCN3C[C@H]2C[C@@H](OC(=O)c2cc(OC)c(OC)c(OC)c2)[C@@H]1OC [reserpine]
EC50 [1]: > 100 µM
EC50 [2]: > 100 µM

Reference: article PMC11913174 (Organic & biomolecular chemistry, 2024)
